One assay relates to THP-1 cells. The experiment in a line: Measurement of IL-1β production, hTRF protocol (second alternative procedure), THP-1 cells. It counts as cell-based, human. The following applies: Homo sapiens. An outline of the steps:
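THP-1 cells differentiated overnight with 50 ng/ml PMA, then plated at 50,000 cells/well in RPMI with 2% FBS onto serial compound dilutions (top final concentration 10 μM) for 2 hours at 37° C. Supernatant IL-1β measured by hTRF (antibodies at 1:40, overnight at 4° C), read at 665/615 nm against a standard curve.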

For another assay, the target named is T1, TLR8 (Homo sapiens, UniProt Q9NR97).
T1 construct: human HEK-Blue cells co-expressing a TLR7 or TLR8 gene
T1 sequence (Q9NR97 27-1041): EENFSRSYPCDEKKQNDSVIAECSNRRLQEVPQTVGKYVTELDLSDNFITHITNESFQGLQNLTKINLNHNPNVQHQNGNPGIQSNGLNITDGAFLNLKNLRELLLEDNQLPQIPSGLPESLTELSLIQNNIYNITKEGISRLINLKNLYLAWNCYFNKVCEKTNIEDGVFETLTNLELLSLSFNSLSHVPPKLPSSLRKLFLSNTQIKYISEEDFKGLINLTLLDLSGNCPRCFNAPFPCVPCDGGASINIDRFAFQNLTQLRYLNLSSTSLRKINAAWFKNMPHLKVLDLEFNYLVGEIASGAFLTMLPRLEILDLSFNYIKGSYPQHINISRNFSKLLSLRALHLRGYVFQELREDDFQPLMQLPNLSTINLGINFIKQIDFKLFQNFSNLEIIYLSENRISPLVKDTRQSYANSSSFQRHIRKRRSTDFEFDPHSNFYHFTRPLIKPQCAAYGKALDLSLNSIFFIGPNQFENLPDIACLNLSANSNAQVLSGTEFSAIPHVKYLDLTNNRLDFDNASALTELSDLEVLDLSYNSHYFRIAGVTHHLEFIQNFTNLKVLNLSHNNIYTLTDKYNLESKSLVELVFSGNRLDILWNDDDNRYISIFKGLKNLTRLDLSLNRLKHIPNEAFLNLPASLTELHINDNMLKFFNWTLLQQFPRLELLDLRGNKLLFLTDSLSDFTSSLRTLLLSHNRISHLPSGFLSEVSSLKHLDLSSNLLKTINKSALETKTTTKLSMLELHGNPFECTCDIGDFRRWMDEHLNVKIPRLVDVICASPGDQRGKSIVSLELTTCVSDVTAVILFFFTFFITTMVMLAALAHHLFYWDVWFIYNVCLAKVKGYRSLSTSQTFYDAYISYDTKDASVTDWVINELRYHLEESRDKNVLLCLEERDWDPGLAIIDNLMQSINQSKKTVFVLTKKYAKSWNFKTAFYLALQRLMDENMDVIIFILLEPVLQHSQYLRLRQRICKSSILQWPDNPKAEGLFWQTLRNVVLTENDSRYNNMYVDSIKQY
The experiment in a line: In vitro human TLR8 binding reporter assay (HEK-Blue, NF-kB/AP1-inducible SEAP). The format is cell-based. The following applies: activity range class, read-out: TLR8 Agonist EC50. In short, it runs like this:
(§1)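 HEK-Blue cells expressing human TLR7 or TLR8 with NF-kB/AP1-inducible SEAP reporter, plated 24 h, then compound-treated 18 h at 37° C, 5% CO2. EC50 normalized to 100% Ymax set by 50 μM reference standard.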
A general note: In a reporter assay the amount or activity of a reporter protein is the signal.

In a further assay the target is T2, TLR7 (Homo sapiens, UniProt Q9NYK1).
T2 construct: human HEK-Blue cells co-expressing a TLR7 or TLR8 gene
T2 sequence (Q9NYK1 27-1049): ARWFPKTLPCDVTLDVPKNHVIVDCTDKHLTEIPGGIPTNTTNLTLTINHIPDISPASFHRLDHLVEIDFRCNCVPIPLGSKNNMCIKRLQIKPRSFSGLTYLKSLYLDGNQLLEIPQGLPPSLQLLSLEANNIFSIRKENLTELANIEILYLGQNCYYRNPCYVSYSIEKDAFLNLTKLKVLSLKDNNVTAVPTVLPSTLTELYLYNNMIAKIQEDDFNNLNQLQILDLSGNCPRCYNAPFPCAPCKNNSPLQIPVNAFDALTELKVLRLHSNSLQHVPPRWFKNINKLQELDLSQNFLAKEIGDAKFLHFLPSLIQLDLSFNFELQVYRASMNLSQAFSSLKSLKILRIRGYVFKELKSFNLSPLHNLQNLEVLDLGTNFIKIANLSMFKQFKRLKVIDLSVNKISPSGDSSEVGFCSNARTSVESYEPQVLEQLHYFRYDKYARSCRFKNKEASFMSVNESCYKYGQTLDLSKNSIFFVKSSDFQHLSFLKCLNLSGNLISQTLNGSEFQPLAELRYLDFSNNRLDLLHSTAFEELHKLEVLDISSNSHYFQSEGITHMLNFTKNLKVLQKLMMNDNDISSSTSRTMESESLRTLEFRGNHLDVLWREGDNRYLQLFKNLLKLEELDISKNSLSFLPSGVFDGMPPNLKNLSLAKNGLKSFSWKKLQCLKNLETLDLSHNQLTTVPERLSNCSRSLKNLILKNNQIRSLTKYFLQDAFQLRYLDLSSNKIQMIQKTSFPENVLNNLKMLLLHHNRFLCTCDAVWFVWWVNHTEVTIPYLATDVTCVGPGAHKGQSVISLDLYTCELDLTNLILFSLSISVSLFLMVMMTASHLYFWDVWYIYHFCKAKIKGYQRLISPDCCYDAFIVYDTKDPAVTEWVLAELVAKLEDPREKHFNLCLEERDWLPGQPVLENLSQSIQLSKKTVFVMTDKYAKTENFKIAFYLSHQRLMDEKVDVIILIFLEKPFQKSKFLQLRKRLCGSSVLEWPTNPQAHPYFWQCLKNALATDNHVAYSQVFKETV
The assay is described as follows: In vitro human TLR7 binding reporter assay (HEK-Blue, NF-kB/AP1-inducible SEAP). It counts as cell-based. The following applies: activity range class, read-out: TLR7 Agonist EC50. An outline of the steps:
as §1

The mark [1] stands for this setting: THP-1, IL-1β production, human, read-out: NLRP3 hILIB EC50.

The values below come from US12037344B2, “NLRP3 modulators” (INNATE TUMOR IMMUNITY, INC., priority 2018, dated 2024).

Where two headings read alike, the source gives them in different places.

For orientation: EC50 means the concentration needed to bring the measured effect to its halfway point.

In the case of `Nc1nc2cc(-c3cc[nH]n3)ccc2c2cn(CCCNC(=O)c3ccc(F)cn3)nc12` [Example 125], the concentration for a half-maximal effect (EC50) in the assay on THP-1 cells (setting [1]) is 8.34 µM; at TLR8, over 100 µM; on TLR7 it was over 100 µM.
Turning to `CC(=O)NCCCn1cc2c(n1)c(N)nc1cc(-c3cc[nH]n3)ccc12` [Example 126], the figures for the concentration for a half-maximal effect (EC50) in the assay on THP-1 cells (setting [1]), at TLR8 and on TLR7 were 5.34 µM, over 100 µM and over 100 µM, respectively.
Take `CC(C)(C)OC(=O)NCCn1cc2c(n1)c(N)nc1cc(-c3cccs3)ccc12` [Example 127, tert-butyl N-{2-[4-amino-7-(thiophen-2-yl)-2H-pyrazolo[3,4-c]quinolin-2-yl]ethyl}carbamate]: the results for the EC50 with THP-1 cells (setting [1]), on TLR8 and at TLR7 were 1.05 µM, over 100 µM and over 100 µM, respectively.
For the compound `Cc1nc(C(=O)NCCn2cc3c(n2)c(N)nc2cc(-c4cccs4)ccc23)co1` [Example 128, N-{2-[4-amino-7-(thiophen-2-yl)-2H-pyrazolo[3,4-c]quinolin-2-yl]ethyl}-2-methyl-1,3-oxazole-4-carboxamide], the EC50 in the assay on THP-1 cells (setting [1]) was 0.36 µM; on TLR8 it was over 100 µM; at TLR7, over 100 µM.
As to `Nc1nc2cc(-c3cccs3)ccc2c2cn(CCNC(=O)c3ccc(F)cn3)nc12` [Example 129], the EC50 is 0.7 µM with THP-1 cells (setting [1]), over 100 µM at TLR8 and over 100 µM on TLR7.
For `CC(=O)NCCn1cc2c(n1)c(N)nc1cc(-c3cccs3)ccc12` [Example 130], the half-maximal effective concentration (EC50) with THP-1 cells (setting [1]) is 0.64 µM; on TLR8, over 100 µM; at TLR7, over 100 µM.
For the compound `Nc1nc2cc(-c3cccs3)ccc2c2cn(CCNC(=O)c3ccccn3)nc12` [Example 131], the EC50 in the assay with THP-1 cells (setting [1]) is 0.61 µM; on TLR8, over 100 µM; at TLR7 it was over 100 µM.
For `Nc1nc2cc(-n3cccn3)ccc2c2cn(CCNC(=O)c3ccccc3)nc12` [Example 132, N-{2-[4-amino-7-(1H-pyrazol-1-yl)-2H-pyrazolo[3,4-c]quinolin-2-yl]ethyl}benzamide], the concentration for a half-maximal effect (EC50) in the assay on THP-1 cells (THP-1, read-out: NLRP3 hILIB EC50) is 0.34 µM; on TLR8, 20 to 100 µM; on TLR7, over 100 µM.
As for `Nc1nc2cc(-n3cccn3)ccc2c2cn(CCNC(=O)c3ccccn3)nc12` [Example 133, N-{2-[4-amino-7-(1H-pyrazol-1-yl)-2H-pyrazolo[3,4-c]quinolin-2-yl]ethyl}pyridine-2-carboxamide], the 50% effective concentration (EC50) in the assay on THP-1 cells (setting [1]) was 0.3 µM; on TLR8 it was over 100 µM; at TLR7, over 100 µM.
Consider `COC(=O)NCc1nc2c(N)nc3cc(-c4ccn[nH]4)ccc3c2s1` [Example 134, methyl N-[[4-amino-7-(1H-pyrazol-5-yl)-[1,3]thiazolo[4,5-c]quinolin-2-yl]methyl]carbamate], for which the EC50 is 0.37 µM in the assay on THP-1 cells (setting [1]), over 100 µM at TLR8 and 20 to 100 µM on TLR7.
The corresponding values for `Nc1nc2cc(-c3ccn[nH]3)ccc2c2sc(CCNC(=O)c3ccccc3)nc12` [Example 135, N-(2-(4-amino-7-(1H-pyrazol-5-yl)thiazolo[4,5-c]quinolin-2-yl)ethyl) benzamide] are 0.98 µM, over 100 µM and over 100 µM.
The corresponding values for `Nc1nc2cc(-c3ccn[nH]3)ccc2c2sc(CCNC(=O)c3ccccn3)nc12` [Example 136, N-[2-[4-amino-7-(1H-pyrazol-5-yl)-[1,3]thiazolo[4,5-c]quinolin-2-yl]ethyl]pyridine-2-carboxamide] are 0.16 µM, over 100 µM and 20 to 100 µM.
The corresponding values for `Nc1nc2cc(-c3ccn[nH]3)ccc2c2sc(CCNC(=O)C3CCO3)nc12` (stereo not drawn) [Example 137, N-[2-[4-amino-7-(1H-pyrazol-5-yl)-[1,3]thiazolo[4,5-c]quinolin-2-yl]ethyl]oxetane-2-carboxamide] are 1.67 µM, over 100 µM and over 100 µM.
Consider `NCCCc1nc2c(N)nc3cc(-c4ccn[nH]4)ccc3c2s1` [Example 138], for which the 50% effective concentration (EC50) in the assay with THP-1 cells (setting [1]) was 3.92 µM; at TLR8, over 100 µM; on TLR7, over 100 µM.
Turning to `CC(=O)NCCCc1nc2c(N)nc3cc(-c4ccn[nH]4)ccc3c2s1` [Example 139, N-[3-[4-amino-7-(1H-pyrazol-5-yl)-[1,3]thiazolo[4,5-c]quinolin-2-yl]propyl]acetamide], the results for the EC50 in the assay on THP-1 cells (setting [1]), on TLR8 and at TLR7 were 7.8 µM, over 100 µM and over 100 µM, respectively.
As for `CCN(Cc1nc2c(N)nc3cc(-c4ccn[nH]4)ccc3c2s1)C(C)=O` [Example 140, N-{[4-amino-7-(1H-pyrazol-3-yl)-[1,3]thiazolo[4,5-c]quinolin-2-yl]methyl}-N-ethylacetamide], the EC50 with THP-1 cells (setting [1]) is 1.65 µM; at TLR8, over 100 µM; at TLR7, over 100 µM.
For `Nc1nc2cc(-c3ccn[nH]3)ccc2c2sc(CCCOCc3ccccc3)nc12` [Example 141, 2-[3-(benzyloxy)propyl]-7-(1H-pyrazol-3-yl)-[1,3]thiazolo[4,5-c]quinolin-4-amine], the EC50 with THP-1 cells (setting [1]) was 6.28 µM; at TLR8 it was at most 1 µM; on TLR7 it was over 100 µM.
For `Nc1nc2cc(-c3ccn[nH]3)ccc2c2sc(CCCO)nc12` [Example 142, 3-[4-amino-7-(1H-pyrazol-3-yl)-[1,3]thiazolo[4,5-c]quinolin-2-yl]propan-1-ol], the EC50 with THP-1 cells (setting [1]) was 1.5 µM; on TLR8 it was 20 to 100 µM; at TLR7, over 100 µM.
As for `CN(C)Cc1nc2c(N)nc3cc(-c4ccn[nH]4)ccc3c2s1` [Example 143, 2-[(dimethylamino)methyl]-7-(1H-pyrazol-5-yl)-[1,3]thiazolo[4,5-c]quinolin-4-amine], the figures for the 50% effective concentration (EC50) in the assay on THP-1 cells (setting [1]), at TLR8 and at TLR7 were 0.4 µM, over 100 µM and over 100 µM, respectively.
For the compound `CCN(CC)CCCc1nc2c(N)nc3cc(-c4ccn[nH]4)ccc3c2s1` [Example 144, 2-[3-(diethylamino)propyl]-7-(1H-pyrazol-5-yl)-[1,3]thiazolo[4,5-c]quinolin-4-amine], the EC50 is 0.66 µM with THP-1 cells (setting [1]), over 100 µM at TLR8 and over 100 µM on TLR7.
Take `CN(C)Cc1nc2c(N)nc3cc(-c4ccn[nH]4)ccc3c2o1` [Example 145, 2-[(dimethylamino)methyl]-7-(1H-pyrazol-5-yl)-[1,3]oxazolo[4,5-c]quinolin-4-amine]: the EC50 is 2.74 µM with THP-1 cells (setting [1]), over 100 µM at TLR8 and over 100 µM on TLR7.
